# Test system: green foxtail
# Test: Test Example 4: herbicidal effect by soil treatment (Table 19, symbol G)
# Type: in vivo, green foxtail (Setaria viridis)
# Settings: amount of applied herbicide 320 g/ha
# Summary of the method: (§1)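 Seeds were sown in sterilized diluvial soil and covered with about 1.5 cm of soil. An emulsion formulation diluted with water to a predetermined herbicide amount was sprayed evenly onto the soil surface. Plants grew in a greenhouse at 25° C. to 30° C., and the effect was scored three weeks after application using criteria from an earlier test.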
row,SMILES,"G: green foxtail, herbicidal effect grade"
1,C=CCOc1ccc2c(-c3c(O)c(C)nn(C)c3=O)c(-c3ccccc3OC)sc2c1 [3-111],5 (Herbicidal rate of 90% or more (almost completely withered))
2,COc1ccccc1-c1sc2cc(OCC(F)F)ccc2c1-c1c(O)c(C)nn(C)c1=O [3-114],5 (Herbicidal rate of 90% or more (almost completely withered))

# Test system: windgrass
# Test: Test Example 4: herbicidal effect by soil treatment (Table 19, symbol L)
# Type: in vivo, windgrass (Apera spica-venti)
# Settings: amount of applied herbicide 320 g/ha
# Summary of the method: as §1
row,SMILES,"L: windgrass, herbicidal effect grade"
1,C=CCOc1ccc2c(-c3c(O)c(C)nn(C)c3=O)c(-c3ccccc3OC)sc2c1 [3-111],0 (Herbicidal rate of 5% or less (almost no effect))
2,COc1ccccc1-c1sc2cc(OCC(F)F)ccc2c1-c1c(O)c(C)nn(C)c1=O [3-114],5 (Herbicidal rate of 90% or more (almost completely withered))

# Test system: redroot pigweed
# Test: Test Example 4: herbicidal effect by soil treatment (Table 19, symbol N)
# Type: in vivo, redroot pigweed (Amaranthus retroflexus)
# Settings: amount of applied herbicide 320 g/ha
# Summary of the method: as §1
row,SMILES,"N: redroot pigweed, herbicidal effect grade"
1,C=CCOc1ccc2c(-c3c(O)c(C)nn(C)c3=O)c(-c3ccccc3OC)sc2c1 [3-111],5 (Herbicidal rate of 90% or more (almost completely withered))
2,COc1ccccc1-c1sc2cc(OCC(F)F)ccc2c1-c1c(O)c(C)nn(C)c1=O [3-114],5 (Herbicidal rate of 90% or more (almost completely withered))

# Test system: lambsquarters
# Test: Test Example 4: herbicidal effect by soil treatment (Table 19, symbol O)
# Type: in vivo, lambsquarters (Chenopodium album)
# Settings: amount of applied herbicide 320 g/ha
# Summary of the method: as §1
row,SMILES,"O: lambsquarters, herbicidal effect grade"
1,C=CCOc1ccc2c(-c3c(O)c(C)nn(C)c3=O)c(-c3ccccc3OC)sc2c1 [3-111],5 (Herbicidal rate of 90% or more (almost completely withered))
2,COc1ccccc1-c1sc2cc(OCC(F)F)ccc2c1-c1c(O)c(C)nn(C)c1=O [3-114],5 (Herbicidal rate of 90% or more (almost completely withered))

# Test system: Japanese bulrush
# Test: Test Example 2: herbicidal activity, application during weed generation under submerged conditions (Table 17, symbol B)
# Type: in vivo, Japanese bulrush (Schoenoplectus juncoides)
# Settings: AAH 320 g/ha; application during weed generation, submerged conditions
# Summary of the method: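 Alluvial soil in Wagner pots was flooded to 4 cm depth and sown with the three weeds together; pots were kept in a greenhouse at 25° C. to 30° C. At the one to two leaf stage, an emulsion formulation diluted in water to a set rate went onto the water surface; scored three weeks later.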
row,SMILES,"herbicidal effect rating, B: Japanese bulrush"
1,C=CCOc1ccc2c(-c3c(O)c(C)nn(C)c3=O)c(-c3ccccc3OC)sc2c1 [3-111],3 (Herbicidal rate of 40% or more and less than 70%)
2,COc1ccccc1-c1sc2cc(OCC(F)F)ccc2c1-c1c(O)c(C)nn(C)c1=O [3-114],4 (Herbicidal rate of 70% or more and less than 90%)

# Test system: barnyard grass
# Test: Test Example 5: herbicidal effect by foliage application, plastic box (Table 20, symbol H)
# Type: in vivo, barnyard grass (Echinochloa crus-galli)
# Settings: foliage application, 320 g/ha, three weeks after application
# Summary of the method: (§2)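 Plants sown in sterilized diluvial soil and grown 14 days in a greenhouse at 25° C to 30° C, then sprayed on the foliage with the compound's emulsion diluted in water to a predetermined herbicide amount. Injury to weeds and crops scored three weeks after application on a visual rating scale.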
row,SMILES,"H: barnyard grass, herbicidal effect grade"
1,C=CCOc1ccc2c(-c3c(O)c(C)nn(C)c3=O)c(-c3ccccc3OC)sc2c1 [3-111],5 (Herbicidal rate of 90% or more (almost completely withered))
2,COc1ccccc1-c1sc2cc(OCC(F)F)ccc2c1-c1c(O)c(C)nn(C)c1=O [3-114],5 (Herbicidal rate of 90% or more (almost completely withered))

# Test system: Italian ryegrass
# Test: Test Example 4: herbicidal effect by soil treatment (Table 19, symbol K)
# Type: in vivo, Italian ryegrass (Lolium multiflorum)
# Settings: amount of applied herbicide 320 g/ha
# Summary of the method: as §1
row,SMILES,"K: Italian ryegrass, herbicidal effect grade"
1,C=CCOc1ccc2c(-c3c(O)c(C)nn(C)c3=O)c(-c3ccccc3OC)sc2c1 [3-111],5 (Herbicidal rate of 90% or more (almost completely withered))
2,COc1ccccc1-c1sc2cc(OCC(F)F)ccc2c1-c1c(O)c(C)nn(C)c1=O [3-114],5 (Herbicidal rate of 90% or more (almost completely withered))

# Test system: oval-leafed pondweed
# Test: Test Example 1: herbicidal activity, application before weed generation under submerged conditions (Table 16, symbol C)
# Type: in vivo, oval-leafed pondweed (Monochoria vaginalis)
# Settings: amount of applied herbicide 320 g/ha
# Summary of the method: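 Emulsion formulation, water-diluted to set dose, was put onto the flooded surface (4 cm depth, alluvial soil) the same day weeds were sown and 2.5-leaf rice transplanted. After 3 weeks at 25-30 °C under glass, each species was rated 0 (≤5% kill) to 5 (≥90% kill).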
row,SMILES,"Herbicidal effect, C: oval-leafed pondweed"
1,C=CCOc1ccc2c(-c3c(O)c(C)nn(C)c3=O)c(-c3ccccc3OC)sc2c1 [3-111],5 (Herbicidal rate of 90% or more (almost completely withered))
2,COc1ccccc1-c1sc2cc(OCC(F)F)ccc2c1-c1c(O)c(C)nn(C)c1=O [3-114],5 (Herbicidal rate of 90% or more (almost completely withered))

# Test system: rice flat sedge
# Test: Test Example 3: herbicidal effect by foliage application, Wagner pot (Table 18, symbol E)
# Type: in vivo, rice flat sedge (Cyperus iria)
# Settings: 320 g/ha
# Summary of the method: (§3)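 Plants were sown in alluvial soil held under 0.1–0.5 cm standing water and grown 14 days in a greenhouse at 25–30 °C. An emulsifiable formulation, water-diluted to the set dose, was then sprayed onto the foliage, and effects were scored three weeks later using previously defined criteria.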
row,SMILES,herbicidal effect on rice flat sedge (E)
1,C=CCOc1ccc2c(-c3c(O)c(C)nn(C)c3=O)c(-c3ccccc3OC)sc2c1 [3-111],5 (Herbicidal rate of 90% or more (almost completely withered))
2,COc1ccccc1-c1sc2cc(OCC(F)F)ccc2c1-c1c(O)c(C)nn(C)c1=O [3-114],5 (Herbicidal rate of 90% or more (almost completely withered))

# Test system: chickweed
# Test: Test Example 5: herbicidal effect by foliage application, plastic box (Table 20, symbol P)
# Type: in vivo, common chickweed (Stellaria media)
# Settings: foliage application, 320 g/ha, three weeks after application
# Summary of the method: as §2
row,SMILES,"P: chickweed, herbicidal effect grade"
1,C=CCOc1ccc2c(-c3c(O)c(C)nn(C)c3=O)c(-c3ccccc3OC)sc2c1 [3-111],5 (Herbicidal rate of 90% or more (almost completely withered))
2,COc1ccccc1-c1sc2cc(OCC(F)F)ccc2c1-c1c(O)c(C)nn(C)c1=O [3-114],5 (Herbicidal rate of 90% or more (almost completely withered))

# Test system: blackgrass
# Test: Test Example 5: herbicidal effect by foliage application, plastic box (Table 20, symbol J)
# Type: in vivo, blackgrass (Alopecurus myosuroides)
# Settings: foliage application, 320 g/ha, three weeks after application
# Summary of the method: as §2
row,SMILES,"J: blackgrass, herbicidal effect grade"
1,C=CCOc1ccc2c(-c3c(O)c(C)nn(C)c3=O)c(-c3ccccc3OC)sc2c1 [3-111],5 (Herbicidal rate of 90% or more (almost completely withered))
2,COc1ccccc1-c1sc2cc(OCC(F)F)ccc2c1-c1c(O)c(C)nn(C)c1=O [3-114],5 (Herbicidal rate of 90% or more (almost completely withered))

# Test system: persian speedwell
# Test: Test Example 4: herbicidal effect by soil treatment (Table 19, symbol R)
# Type: in vivo, Persian speedwell (Veronica persica)
# Settings: amount of applied herbicide 320 g/ha
# Summary of the method: as §1
row,SMILES,"R: persian speedwell, herbicidal effect grade"
1,C=CCOc1ccc2c(-c3c(O)c(C)nn(C)c3=O)c(-c3ccccc3OC)sc2c1 [3-111],5 (Herbicidal rate of 90% or more (almost completely withered))
2,COc1ccccc1-c1sc2cc(OCC(F)F)ccc2c1-c1c(O)c(C)nn(C)c1=O [3-114],5 (Herbicidal rate of 90% or more (almost completely withered))

# Test system: Chinese sprangletop
# Test: Test Example 3: herbicidal effect by foliage application, Wagner pot (Table 18, symbol D)
# Type: in vivo, chinese sprangletop (Leptochloa chinensis)
# Settings: 320 g/ha
# Summary of the method: as §3
row,SMILES,herbicidal effect on Chinese sprangletop (D)
1,C=CCOc1ccc2c(-c3c(O)c(C)nn(C)c3=O)c(-c3ccccc3OC)sc2c1 [3-111],3 (Herbicidal rate of 40% or more and less than 70%)
2,COc1ccccc1-c1sc2cc(OCC(F)F)ccc2c1-c1c(O)c(C)nn(C)c1=O [3-114],4 (Herbicidal rate of 70% or more and less than 90%)

# Test system: velvetleaf
# Test: Test Example 5: herbicidal effect by foliage application, plastic box (Table 20, symbol M)
# Type: in vivo, velvetleaf (Abutilon theophrasti)
# Settings: foliage application, 320 g/ha, three weeks after application
# Summary of the method: as §2
row,SMILES,"M: velvetleaf, herbicidal effect grade"
1,C=CCOc1ccc2c(-c3c(O)c(C)nn(C)c3=O)c(-c3ccccc3OC)sc2c1 [3-111],5 (Herbicidal rate of 90% or more (almost completely withered))
2,COc1ccccc1-c1sc2cc(OCC(F)F)ccc2c1-c1c(O)c(C)nn(C)c1=O [3-114],5 (Herbicidal rate of 90% or more (almost completely withered))

# Test system: velvetleaf
# Test: Test Example 4: herbicidal effect by soil treatment (Table 19, symbol M)
# Type: in vivo, velvetleaf (Abutilon theophrasti)
# Settings: amount of applied herbicide 320 g/ha
# Summary of the method: as §1
row,SMILES,"M: velvetleaf, herbicidal effect grade"
1,C=CCOc1ccc2c(-c3c(O)c(C)nn(C)c3=O)c(-c3ccccc3OC)sc2c1 [3-111],3 (Herbicidal rate of 40% or more and less than 70%)
2,COc1ccccc1-c1sc2cc(OCC(F)F)ccc2c1-c1c(O)c(C)nn(C)c1=O [3-114],4 (Herbicidal rate of 70% or more and less than 90%)

# Test system: wild oat
# Test: Test Example 4: herbicidal effect by soil treatment (Table 19, symbol I)
# Type: in vivo, wild oat (Avena fatua)
# Settings: amount of applied herbicide 320 g/ha
# Summary of the method: as §1
row,SMILES,"I: wild oat, herbicidal effect grade"
1,C=CCOc1ccc2c(-c3c(O)c(C)nn(C)c3=O)c(-c3ccccc3OC)sc2c1 [3-111],3 (Herbicidal rate of 40% or more and less than 70%)
2,COc1ccccc1-c1sc2cc(OCC(F)F)ccc2c1-c1c(O)c(C)nn(C)c1=O [3-114],0 (Herbicidal rate of 5% or less (almost no effect))

# Test system: Italian ryegrass
# Test: Test Example 5: herbicidal effect by foliage application, plastic box (Table 20, symbol K)
# Type: in vivo, Italian ryegrass (Lolium multiflorum)
# Settings: foliage application, 320 g/ha, three weeks after application
# Summary of the method: as §2
row,SMILES,"K: Italian ryegrass, herbicidal effect grade"
1,C=CCOc1ccc2c(-c3c(O)c(C)nn(C)c3=O)c(-c3ccccc3OC)sc2c1 [3-111],5 (Herbicidal rate of 90% or more (almost completely withered))
2,COc1ccccc1-c1sc2cc(OCC(F)F)ccc2c1-c1c(O)c(C)nn(C)c1=O [3-114],5 (Herbicidal rate of 90% or more (almost completely withered))
